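Step 1: Grow cells in 96-well plates. Step 2: Expose to compound for 48 hours at 5 concentrations. Step 3: Interpolate endpoints linearly; if unreached, use highest concentration. TGI: concentration producing complete growth inhibition.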
Tests used:
Assay in all cases: inhibition of tumour cell growth, NCI panel, 48 h
RXF 393 renal = test system: RXF 393 renal
BT-549 breast = test system: BT-549 breast
U251 CNS = test system: U251 CNS
MDA-MB-231 breast = test system: MDA-MB-231 breast
SK-MEL-28 melanoma = test system: SK-MEL-28 melanoma
MDA-MB-435 = test system: MDA-MB-435
K-562 leukemia = test system: K-562 leukemia
SNB-75 CNS = test system: SNB-75 CNS
ACHN renal = test system: ACHN renal
SF-295 CNS = test system: SF-295 CNS
MCF7 breast = test system: MCF7 breast
786-0 renal = test system: 786-0 renal
CAKI-1 renal = test system: CAKI-1 renal
OVCAR-4 ovarian = test system: OVCAR-4 ovarian
M14 melanoma = test system: M14 melanoma
A549 NSCLC = test system: A549 NSCLC
SF-268 CNS = test system: SF-268 CNS
KM12 colon = test system: KM12 colon
LOX IMVI melanoma = test system: LOX IMVI melanoma
T-47D breast = test system: T-47D breast
SW-620 colon = test system: SW-620 colon
TK-10 renal = test system: TK-10 renal
HOP-92 NSCLC = test system: HOP-92 NSCLC
UACC-257 melanoma = test system: UACC-257 melanoma
MOLT-4 leukemia = test system: MOLT-4 leukemia
MDA-N = test system: MDA-N
NCI-H226 lung = test system: NCI-H226 lung
HCT-116 colon = test system: HCT-116 colon
NCI-H522 lung = test system: NCI-H522 lung
SN12C renal = test system: SN12C renal
PC-3 prostate = test system: PC-3 prostate
CCRF-CEM leukemia = test system: CCRF-CEM leukemia
HCC-2998 colon = test system: HCC-2998 colon
SK-MEL-2 melanoma = test system: SK-MEL-2 melanoma
RPMI-8226 leukemia = test system: RPMI-8226 leukemia
HL-60(TB) leukemia = test system: HL-60(TB) leukemia
NCI/ADR-RES ovarian = test system: NCI/ADR-RES ovarian
DU-145 prostate = test system: DU-145 prostate
SK-MEL-5 melanoma = test system: SK-MEL-5 melanoma
SF-539 CNS = test system: SF-539 CNS
NCI-H460 lung = test system: NCI-H460 lung
OVCAR-3 ovarian = test system: OVCAR-3 ovarian
UACC-62 melanoma = test system: UACC-62 melanoma
SNB-19 CNS = test system: SNB-19 CNS
SK-OV-3 ovarian = test system: SK-OV-3 ovarian
NCI-H23 lung = test system: NCI-H23 lung
A498 renal = test system: A498 renal
OVCAR-5 ovarian = test system: OVCAR-5 ovarian
UO-31 renal = test system: UO-31 renal
SR leukemia = test system: SR leukemia
OVCAR-8 ovarian = test system: OVCAR-8 ovarian
COLO 205 colon = test system: COLO 205 colon
HOP-62 NSCLC = test system: HOP-62 NSCLC
IGROV1 ovarian = test system: IGROV1 ovarian
MALME-3M melanoma = test system: MALME-3M melanoma
HS 578T breast = test system: HS 578T breast

Measured: TGI

N#CCN1CCCN(CC#N)CCN(CC#N)CCCN(CC#N)CC1
65.8 µM: LOX IMVI melanoma
> 100 µM: all other assays above

From PubChem BioAssay (NCI)
